According to US5789405A, “Oxaspiro(2,5)octane derivative” (Fujisawa Pharmaceutical Co., Ltd., priority 1988, dated 1998):
≈ marks a conversion by molar mass, not a printed value.

Test system: Endothelial cells from human umbilical vein (HUVEC)
Test: Test effect on endothelial cell growth (HUVEC proliferation, MTT method)
Assay type: cell-based
Details: 120 h, 5 days incubation at 37° C., graphically determined, read-out: IC50 (50% inhibition doses of the test compound to endothelial cell growth)
Procedure: Test effect of the object compound (I) on endothelial cell growth
Endothelial cells from human umbilical vein (HUVEC) were used for this experiment.
HUVEC (2×10^3 cells per well) were plated on 96 wells microtiter plates previously coated with human fibronectin and incubated with MCDB 151 [GIBCO] medium supplemented with 15% FBS (fetal bovine serum), […] ECGS (Endothelial cell growth supplement), 10 μg/ml heparin in the presence of the test compound at 37° C. under 5% CO2 in the air for 5 days. At the end of the experiments, the growth rate of HUVEC was measured according to the MTT method [Cancer treatment Reports 71, 1141~1149 (1987)].
IC50 values [50% inhibition doses of the test compound to endothelial cell growth) of the test compound were graphically determined and are shown in the following table.

| Compound | IC50 |
| --- | --- |
| CNC(=O)OC1CCC2(CO2)C(C2(C)OC2CC=C(C)C)C1OC (centres unmarked) | 0.21 ng/mL (≈ 0.619 nM) |
| COC1C(OC(=O)N2CCOCC2)CCC2(CO2)C1C1(C)OC1CC=C(C)C (centres unmarked) | 0.62 ng/mL (≈ 1.57 nM) |
